System: FN−/−fibroblasts
Format: cell-based, mouse
Settings: Rho experiment: substrate 120 kDa CBD of fibronectin; substance added as supplement (Figs 5B-5D)

Lysophosphatidic acid [LPA]
% of attached cells that assemble focal adhesions and actin stress fibers (spread morphology): 95%
